Results: patent US20090311217A1, “3-SUBSTITUTED-1H-INDOLE COMPOUNDS, THEIR USE AS MTOR KINASE AND PI3 KINASE INHIBITORS, AND THEIR SYNTHESES” (priority 2008, published 2009)
Where two headings read alike, the source gives them in different places.

Key:
Format in all cases: biochemical
[1] = target: PI3K-alpha (Homo sapiens, UniProt P42336); assay: PI3K-alpha fluorescence polarization assay; settings: read-out: PI3Kα Avg. IC50
[2] = target: PI3K-delta (Homo sapiens, UniProt O00329); assay: PI3K-delta fluorescence polarization assay; settings: read-out: PI3Kδ Avg. IC50
Chain of PI3K-delta (O00329 whole entry, species assumed): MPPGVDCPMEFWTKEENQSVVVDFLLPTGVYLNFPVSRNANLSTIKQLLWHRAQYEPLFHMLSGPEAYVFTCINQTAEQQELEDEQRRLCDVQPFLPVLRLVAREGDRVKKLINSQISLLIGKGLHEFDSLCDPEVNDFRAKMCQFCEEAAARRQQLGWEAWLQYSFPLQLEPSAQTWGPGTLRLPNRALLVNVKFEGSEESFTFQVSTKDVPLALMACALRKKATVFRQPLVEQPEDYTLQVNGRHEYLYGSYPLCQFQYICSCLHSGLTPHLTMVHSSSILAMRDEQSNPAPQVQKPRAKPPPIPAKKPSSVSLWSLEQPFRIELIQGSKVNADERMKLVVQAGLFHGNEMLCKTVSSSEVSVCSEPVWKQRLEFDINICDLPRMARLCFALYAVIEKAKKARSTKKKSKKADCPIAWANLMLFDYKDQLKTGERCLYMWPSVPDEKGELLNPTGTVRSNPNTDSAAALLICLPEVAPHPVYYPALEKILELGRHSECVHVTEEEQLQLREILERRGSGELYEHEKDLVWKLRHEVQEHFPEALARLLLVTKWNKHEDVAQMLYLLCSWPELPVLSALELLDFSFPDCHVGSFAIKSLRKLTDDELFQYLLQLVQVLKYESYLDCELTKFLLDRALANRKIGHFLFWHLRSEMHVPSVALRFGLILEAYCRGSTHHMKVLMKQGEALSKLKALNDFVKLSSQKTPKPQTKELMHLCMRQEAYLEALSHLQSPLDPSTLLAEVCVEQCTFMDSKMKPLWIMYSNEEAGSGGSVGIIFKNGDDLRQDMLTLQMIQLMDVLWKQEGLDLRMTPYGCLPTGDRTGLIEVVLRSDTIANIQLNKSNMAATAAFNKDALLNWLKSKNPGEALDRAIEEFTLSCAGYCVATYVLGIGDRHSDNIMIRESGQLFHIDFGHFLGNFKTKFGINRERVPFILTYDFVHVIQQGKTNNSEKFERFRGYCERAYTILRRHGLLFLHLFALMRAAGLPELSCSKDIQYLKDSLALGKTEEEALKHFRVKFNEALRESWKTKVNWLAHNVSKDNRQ
Chain of PI3K-delta (P27986 whole entry partner, species assumed): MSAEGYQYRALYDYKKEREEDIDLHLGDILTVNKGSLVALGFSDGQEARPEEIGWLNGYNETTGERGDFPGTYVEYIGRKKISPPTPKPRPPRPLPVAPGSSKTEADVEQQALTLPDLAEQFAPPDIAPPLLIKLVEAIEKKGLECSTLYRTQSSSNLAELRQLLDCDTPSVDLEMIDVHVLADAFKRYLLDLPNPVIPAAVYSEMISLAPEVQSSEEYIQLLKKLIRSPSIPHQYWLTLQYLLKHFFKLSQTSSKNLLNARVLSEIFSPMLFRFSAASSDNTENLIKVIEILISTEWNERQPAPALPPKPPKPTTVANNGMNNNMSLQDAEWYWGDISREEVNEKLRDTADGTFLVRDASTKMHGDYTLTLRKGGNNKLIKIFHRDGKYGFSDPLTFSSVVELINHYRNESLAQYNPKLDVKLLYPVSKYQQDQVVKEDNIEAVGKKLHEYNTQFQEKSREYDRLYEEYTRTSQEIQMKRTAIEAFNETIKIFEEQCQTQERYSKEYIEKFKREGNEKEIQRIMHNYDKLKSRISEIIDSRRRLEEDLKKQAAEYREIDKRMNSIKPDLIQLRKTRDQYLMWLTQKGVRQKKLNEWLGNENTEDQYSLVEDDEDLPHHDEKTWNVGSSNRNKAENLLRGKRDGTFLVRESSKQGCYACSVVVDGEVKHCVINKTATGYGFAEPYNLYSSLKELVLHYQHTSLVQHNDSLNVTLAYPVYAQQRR

[3] = target: T1, human TOR (Homo sapiens, UniProt P42345); assay: mTOR enzyme assay (DELFIA, His6-S6K substrate); settings: read-out: mTOR Kinase Avg. IC50
T1 construct: FLAG

[4] = target: PI3K-gamma (Homo sapiens, UniProt P48736); assay: PI3K-gamma fluorescence polarization assay
Chain of PI3K-gamma (P48736 whole entry, species assumed, the tested form may be a part): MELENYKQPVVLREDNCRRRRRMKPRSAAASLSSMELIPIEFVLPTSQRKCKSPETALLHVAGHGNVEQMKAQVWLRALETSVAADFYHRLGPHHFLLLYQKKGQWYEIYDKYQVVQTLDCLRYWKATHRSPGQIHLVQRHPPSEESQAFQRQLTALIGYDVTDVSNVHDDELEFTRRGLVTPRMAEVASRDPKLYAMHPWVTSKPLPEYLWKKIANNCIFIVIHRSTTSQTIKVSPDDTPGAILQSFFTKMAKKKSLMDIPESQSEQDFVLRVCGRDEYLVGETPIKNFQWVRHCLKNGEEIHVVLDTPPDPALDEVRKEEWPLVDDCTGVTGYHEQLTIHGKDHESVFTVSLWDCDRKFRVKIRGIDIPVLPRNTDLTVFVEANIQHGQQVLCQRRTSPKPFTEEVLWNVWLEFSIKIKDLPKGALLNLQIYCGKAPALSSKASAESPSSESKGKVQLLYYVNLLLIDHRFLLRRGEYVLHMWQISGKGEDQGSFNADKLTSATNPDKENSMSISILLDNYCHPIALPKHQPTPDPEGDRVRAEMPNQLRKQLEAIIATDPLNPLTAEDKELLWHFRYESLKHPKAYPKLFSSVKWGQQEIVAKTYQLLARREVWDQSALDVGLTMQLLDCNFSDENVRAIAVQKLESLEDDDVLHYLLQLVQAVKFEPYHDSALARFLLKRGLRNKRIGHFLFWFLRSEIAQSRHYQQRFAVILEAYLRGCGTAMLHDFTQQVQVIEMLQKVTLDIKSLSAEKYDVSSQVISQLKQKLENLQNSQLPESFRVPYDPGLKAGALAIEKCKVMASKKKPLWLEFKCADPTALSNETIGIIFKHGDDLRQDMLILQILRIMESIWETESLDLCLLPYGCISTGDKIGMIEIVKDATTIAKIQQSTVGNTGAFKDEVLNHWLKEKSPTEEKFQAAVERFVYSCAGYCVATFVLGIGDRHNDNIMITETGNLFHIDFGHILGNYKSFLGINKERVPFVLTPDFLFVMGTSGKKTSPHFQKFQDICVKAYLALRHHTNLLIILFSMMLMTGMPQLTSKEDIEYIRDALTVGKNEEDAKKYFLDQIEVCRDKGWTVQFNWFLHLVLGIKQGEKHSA
Method in brief: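 Inhibition is derived from a polarization signal: after a 1 h, 25° C kinase step (25 μM ATP, 2.5 μM diC8-PIP2, pH 7), EDTA stops the reaction and the GRP1 PH domain/TMR-IP4 pair reports lipid product.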

Chain of PI3K-alpha (P42336 whole entry, species assumed): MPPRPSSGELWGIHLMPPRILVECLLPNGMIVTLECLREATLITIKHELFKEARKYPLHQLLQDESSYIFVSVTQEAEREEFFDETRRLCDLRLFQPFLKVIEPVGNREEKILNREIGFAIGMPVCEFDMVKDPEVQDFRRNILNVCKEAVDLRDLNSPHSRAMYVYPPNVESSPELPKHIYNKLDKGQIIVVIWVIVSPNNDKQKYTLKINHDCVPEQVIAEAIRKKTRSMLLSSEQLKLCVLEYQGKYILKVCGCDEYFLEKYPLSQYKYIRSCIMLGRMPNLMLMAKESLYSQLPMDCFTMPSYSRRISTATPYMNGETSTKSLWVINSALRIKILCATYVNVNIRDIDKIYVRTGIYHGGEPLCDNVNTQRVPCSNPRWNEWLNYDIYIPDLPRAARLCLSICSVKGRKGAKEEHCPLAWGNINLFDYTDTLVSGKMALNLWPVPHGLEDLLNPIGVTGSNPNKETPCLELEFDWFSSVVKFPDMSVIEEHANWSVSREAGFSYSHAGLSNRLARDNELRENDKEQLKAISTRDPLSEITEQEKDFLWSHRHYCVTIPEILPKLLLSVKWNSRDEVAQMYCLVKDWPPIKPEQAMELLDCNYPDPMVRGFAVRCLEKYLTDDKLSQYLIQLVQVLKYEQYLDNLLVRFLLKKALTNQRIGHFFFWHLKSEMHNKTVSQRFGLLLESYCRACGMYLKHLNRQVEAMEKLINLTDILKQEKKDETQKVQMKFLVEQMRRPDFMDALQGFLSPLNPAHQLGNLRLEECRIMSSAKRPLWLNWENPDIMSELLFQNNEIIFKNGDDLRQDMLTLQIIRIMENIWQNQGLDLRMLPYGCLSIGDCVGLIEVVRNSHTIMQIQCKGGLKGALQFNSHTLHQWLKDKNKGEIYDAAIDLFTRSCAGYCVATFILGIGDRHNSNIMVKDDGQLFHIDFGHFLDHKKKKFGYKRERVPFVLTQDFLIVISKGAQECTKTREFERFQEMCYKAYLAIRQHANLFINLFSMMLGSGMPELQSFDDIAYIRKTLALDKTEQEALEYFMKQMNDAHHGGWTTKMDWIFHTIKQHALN
Chain of PI3K-alpha (P27986 whole entry partner, species assumed): as the sequence (P27986 whole entry partner, species assumed) above

**Q.** `COc1ccc2c(c1)c(/C=C1\Oc3ccc(NC(=O)Nc4ccc(C(=O)N5CCN(C)CC5)cc4)cc3C1=O)c(C)n2CCN1CCN(C)CC1` [Compound 618, 1-[(2Z)-2-({5-methoxy-2-methyl-1-[2-(4-methylpiperazin-1-yl)ethyl]-1H-indol-3-yl}methylene)-3-oxo-2,3-dihydro-1-benzofuran-5-yl]-3-{4-[(4-methylpiperazin-1-yl)carbonyl]phenyl}urea] was tested. Which IC50 [1] did it give?
**A.** 0.0005 µM

**Q.** What about the IC50 [2] of the same compound?
**A.** 0.005 µM

**Q.** What about the IC50 [3] of the same compound?
**A.** 0.1 µM

**Q.** Which results are given for `COc1ccc2c(c1)c(/C=C1\Oc3ccc(NC(=O)Nc4ccc(C(=O)N5CCN(C)CC5)cc4)cc3C1=O)c(C)n2CCO` [Compound 619, 1-[(2Z)-2-{[1-(2-hydroxyethyl)-5-methoxy-2-methyl-1H-indol-3-yl]methylene}-3-oxo-2,3-dihydro-1-benzofuran-5-yl]-3-{4-[(4-methylpiperazin-1-yl)carbonyl]phenyl}urea]?
**A.** IC50 [1]: 0.0002 µM; IC50 [2]: 0.0025 µM; IC50 [3]: 0.038 µM

**Q.** `COc1ccc2c(c1)c(/C=C1\Oc3cc(O)ccc3C1=O)c(C)n2CCN1CCC(C)CC1` [Example 455, (2Z)-6-Hydroxy-2-({5-methoxy-2-methyl-1-[2-(4-methylpiperidin-1-yl)ethyl]-1H-indol-3-yl}methylene)-1-benzofuran-3(2H)-one] was tested. Which IC50 [1] did it give?
**A.** 0.039 µM

**Q.** What about the IC50 ([4]; PI3Kγ Avg. IC50) of the same compound?
**A.** 0.612 µM

**Q.** And the IC50 [3]?
**A.** 1.4 µM

**Q.** Which results are given for `COc1ccc2c(c1)c(/C=C1\Oc3cc(O)c(Cl)cc3C1=O)c(C)n2CCN1CCN(C)CC1` [Example 456, (2Z)-5-Chloro-6-hydroxy-2-({5-methoxy-2-methyl-1-[2-(4-methylpiperazin-1-yl)ethyl]-1H-indol-3-yl}methylene)-1-benzofuran-3(2H)-one]?
**A.** IC50 [1]: 0.0905 µM; IC50 ([4]; PI3Kγ Avg. IC50): 4.6 µM; IC50 [3]: > 20 µM

**Q.** How did the IC50 [1] turn out when `COc1ccc2c(c1)c(/C=C1\Oc3c(ccc(O)c3F)C1=O)c(C)n2CCN1CCN(C)CC1` [Example 457, (2Z)-7-Fluoro-6-hydroxy-2-({5-methoxy-2-methyl-1-[2-(4-methylpiperazin-1-yl)ethyl]-1H-indol-3-yl}methylene)-1-benzofuran-3(2H)-one] was run?
**A.** 0.074 µM

**Q.** And the IC50 ([4]; PI3Kγ Avg. IC50)?
**A.** 5.05 µM

**Q.** What about the IC50 [3] of the same compound?
**A.** > 20 µM

**Q.** For `COc1ccc2c(c1)c(/C=C1\Oc3cc(O)c(C)cc3C1=O)c(C)n2CCN1CCN(C)CC1` [Example 458, (2Z)-6-Hydroxy-2-({5-methoxy-2-methyl-1-[2-(4-methylpiperazin-1-yl)ethyl]-1H-indol-3-yl}methylene)-5-methyl-1-benzofuran-3(2H)-one], which IC50 [1] is on record?
**A.** 0.135 µM

**Q.** What about the IC50 ([4]; PI3Kγ Avg. IC50) of the same compound?
**A.** 4.35 µM

**Q.** And the IC50 [3]?
**A.** > 20 µM

**Q.** Which IC50 [1] does the source give for `COc1ccc2c(c1)c(/C=C1\Oc3cc(O)c(C)cc3C1=O)c(C)n2CCCN(C)C` [Example 459, (2Z)-2-({1-[3-(Dimethylamino)propyl]-5-methoxy-2-methyl-1H-indol-3-yl}methylene)-6-hydroxy-5-methyl-1-benzofuran-3(2H)-one] here?
**A.** 0.191 µM

**Q.** What about the IC50 ([4]; PI3Kγ Avg. IC50) of the same compound?
**A.** 6.69 µM

**Q.** And the IC50 [3]?
**A.** > 20 µM

**Q.** What does the source list for `COc1ccc2c(c1)c(/C=C1\Oc3cc(O)ccc3C1=O)c(C)n2CCCN1CCC(C)CC1` [Example 460, (2Z)-6-Hydroxy-2-({5-methoxy-2-methyl-1-[3-(4-methylpiperidin-1-yl)propyl]-1H-indol-3-yl}methylene)-1-benzofuran-3(2H)-one]?
**A.** IC50 [1]: 0.018 µM; IC50 ([4]; PI3Kγ Avg. IC50): 1.38 µM; IC50 [3]: 6.5 µM

**Q.** What does the source list for `COc1ccc2c(c1)c(/C=C1\Oc3cc(O)ccc3C1=O)c(C)n2CCCN1CCCC1C` (stereo not drawn) [Example 461, (2Z)-6-Hydroxy-2-({5-methoxy-2-methyl-1-[3-(2-methylpyrrolidin-1-yl)propyl]-1H-indol-3-yl}methylene)-1-benzofuran-3(2H)-one]?
**A.** IC50 [1]: 0.0195 µM; IC50 ([4]; PI3Kγ Avg. IC50): 1.06 µM; IC50 [3]: 12.5 µM

**Q.** `COc1ccc2c(c1)c(/C=C1\Oc3cc(O)ccc3C1=O)c(C1CC1)n2CCCN(C)C` [Example 462, (2Z)-2-({2-Cyclopropyl-1-[3-(dimethylamino)propyl]-5-methoxy-1H-indol-3-yl}methylene)-6-hydroxy-1-benzofuran-3(2H)-one] was tested. Which IC50 [1] did it give?
**A.** 0.0215 µM

**Q.** And the IC50 ([4]; PI3Kγ Avg. IC50)?
**A.** 1.05 µM

**Q.** What about the IC50 [3] of the same compound?
**A.** 0.635 µM

**Q.** Which results are given for `COc1ccc2c(c1)c(/C=C1\Oc3cc(O)cc(O)c3C1=O)c(-c1cncnc1)n2CCN1CCN(C)CC1` [Example 463, (2Z)-4,6-Dihydroxy-2-({5-methoxy-1-[2-(4-methylpiperazin-1-yl)ethyl]-2-pyrimidin-5-yl-1H-indol-3-yl}methylene)-1-benzofuran-3(2H)-one]?
**A.** IC50 [1]: 0.0515 µM; IC50 ([4]; PI3Kγ Avg. IC50): 0.971 µM; IC50 [3]: 2 µM

**Q.** Which IC50 [1] does the source give for `COc1ccc2c(c1)c(/C=C1\Oc3cc(O)cc(C)c3C1=O)c(C1CC1)n2CCN1CCN(C)CC1` [Example 464, (2Z)-2-({2-Cyclopropyl-5-methoxy-1-[2-(4-methylpiperazin-1-yl)ethyl]-1H-indol-3-yl}methylene)-6-hydroxy-4-methyl-1-benzofuran-3(2H)-one] here?
**A.** 0.0135 µM

**Q.** And the IC50 ([4]; PI3Kγ Avg. IC50)?
**A.** 1.45 µM

**Q.** And the IC50 [3]?
**A.** 0.0375 µM

**Q.** With `COc1ccc2c(c1)c(/C=C1\Oc3cc(O)cc(F)c3C1=O)c(C)n2CCCN(C)C` [Example 465, (2Z)-2-({1-[3-(Dimethylamino)propyl]-5-methoxy-2-methyl-1H-indol-3-yl}methylene)-4-fluoro-6-hydroxy-1-benzofuran-3(2H)-one] as the compound, how does the IC50 [1] read?
**A.** 0.0295 µM

**Q.** And the IC50 ([4]; PI3Kγ Avg. IC50)?
**A.** 0.475 µM

**Q.** What about the IC50 [3] of the same compound?
**A.** > 20 µM

**Q.** Which results are given for `COc1ccc2c(c1)c(/C=C1\Oc3cc(O)cc(Cl)c3C1=O)c(C)n2CCCN(C)C` [Example 466, (2Z)-4-Chloro-2-({1-[3-(dimethylamino)propyl]-5-methoxy-2-methyl-1H-indol-3-yl}methylene)-6-hydroxy-1-benzofuran-3(2H)-one]?
**A.** IC50 [1]: 0.073 µM; IC50 ([4]; PI3Kγ Avg. IC50): 1.27 µM; IC50 [3]: 7.5 µM

**Q.** Which IC50 [1] does the source give for `COc1ccc2c(c1)c(/C=C1\Oc3cc(O)cc(Cl)c3C1=O)c(C)n2CCN1CCN(C)CC1` [Example 467, (2Z)-4-Chloro-6-hydroxy-2-({5-methoxy-2-methyl-1-[2-(4-methylpiperazin-1-yl)ethyl]-1H-indol-3-yl}methylene)-1-benzofuran-3(2H)-one] here?
**A.** 0.0505 µM

**Q.** What about the IC50 ([4]; PI3Kγ Avg. IC50) of the same compound?
**A.** 1.79 µM

**Q.** And the IC50 [3]?
**A.** 0.425 µM

**Q.** Which results are given for `COc1ccc2c(c1)c(/C=C1\Oc3cc(O)cc(C)c3C1=O)c(C)n2CCCN(C)C` [Example 468, (2Z)-2-({1-[3-(Dimethylamino)propyl]-5-methoxy-2-methyl-1H-indol-3-yl}methylene)-6-hydroxy-4-methyl-1-benzofuran-3(2H)-one]?
**A.** IC50 [1]: 0.0485 µM; IC50 ([4]; PI3Kγ Avg. IC50): 3.2 µM; IC50 [3]: 2.2 µM

**Q.** What does the source list for `COc1ccc2c(c1)c(/C=C1\Oc3cc(O)ccc3C1=O)c(-c1c(C)noc1C)n2CCN1CCN(C)CC1` [Example 469, (2Z)-2-({2-(3,5-Dimethylisoxazol-4-yl)-5-methoxy-1-[2-(4-methylpiperazin-1-yl)ethyl]-1H-indol-3-yl}methylene)-6-hydroxy-1-benzofuran-3(2H)-one]?
**A.** IC50 [1]: 0.0235 µM; IC50 ([4]; PI3Kγ Avg. IC50): 0.942 µM; IC50 [3]: 0.165 µM

**Q.** `COc1ccc2c(c1)c(/C=C1\Oc3cc(O)ccc3C1=O)c(C)n2CCN1CCCCCC1` [Example 470, (2Z)-2-{[1-(2-Azepan-1-ylethyl)-5-methoxy-2-methyl-1H-indol-3-yl]methylene}-6-hydroxy-1-benzofuran-3(2H)-one] was tested. Which IC50 [1] did it give?
**A.** 0.0355 µM

**Q.** What about the IC50 ([4]; PI3Kγ Avg. IC50) of the same compound?
**A.** 0.656 µM

**Q.** And the IC50 [3]?
**A.** 2.3 µM

**Q.** With “(2Z)-2-[(4-Bromo-1-methyl-1H-indol-3-yl)methylene]-4,6-dimethoxybenzofuran-3(2H)-one [Example 408]” as the compound, how does the IC50 [1] read?
**A.** 3.31 µM

**Q.** And the IC50 ([4]; read-out: PI3Kγ Avg. IC50)?
**A.** 1.94 µM

**Q.** And the IC50 [3]?
**A.** > 20 µM
